≈ marks a conversion by molar mass, not a printed value.
Columns and labels:
Format in all cases: functional
Settings in all cases: time 18-24 hrs
Escherichia coli [1] = test: Antibacterial activity against pET28a-NDM-1 positive Escherichia coli BL21(DE3) isolates assessed as inhibition of bacterial growth incubated for 18 to 24 hrs by CLSI based broth microdilution method
Escherichia coli [2] = test: Antibacterial activity against NDM-1 positive Escherichia coli ZC-YN3 isolates assessed as inhibition of bacterial growth incubated for 18 to 24 hrs by CLSI based broth microdilution method
Escherichia coli [3] = test: Antibacterial activity against NDM-1 positive MCR1 carrying Escherichia coli ZJ487 isolates assessed as inhibition of bacterial growth incubated for 18 to 24 hrs by CLSI based broth microdilution method
Escherichia coli [4] = test: Antibacterial activity against NDM-1 negative Escherichia coli ATCC25922 isolates assessed as inhibition of bacterial growth incubated for 18 to 24 hrs by CLSI based broth microdilution method
Escherichia coli [5] = test: Antibacterial activity against NDM-1 negative Escherichia coli BL21(DE3) pET28a isolates assessed as inhibition of bacterial growth incubated for 18 to 24 hrs by CLSI based broth microdilution method

Row | Compound | MIC (Escherichia coli [1]) | MIC (Escherichia coli [2]) | MIC (Escherichia coli [3]) | MIC (Escherichia coli [4]) | MIC (Escherichia coli [5])
1 | C[C@H]1c2cccc(O)c2C(=O)C2=C(O)[C@]3(O)C(=O)C(C(N)=O)=C(O)[C@@H](N(C)C)[C@@H]3[C@@H](O)[C@@H]21.O [DOXYCYCLINE] | 128 µg/mL | 64 µg/mL | – | – | –
2 | CO/N=C(\C(=O)N[C@@H]1C(=O)N2C(C(=O)O)=C(COC(C)=O)CS[C@H]12)c1csc(N)n1 [CEFOTAXIME] | 512 µg/mL (≈ 1120 µM) | 512 µg/mL (≈ 1120 µM) | – | – | –
3 | CN[C@@H]1[C@H](O[C@H]2[C@H](O[C@H]3[C@H](O)[C@@H](O)[C@H](N=C(N)N)[C@@H](O)[C@@H]3N=C(N)N)O[C@@H](C)[C@]2(O)C=O)O[C@@H](CO)[C@H](O)[C@H]1O [STREPTOMYCIN] | 53.3 µg/mL (≈ 91.6 µM) | 256 µg/mL (≈ 440 µM) | – | – | –
4 | CN(C)[C@@H]1C(O)=C(C(N)=O)C(=O)[C@@]2(O)C(O)=C3C(=O)c4c(O)cccc4[C@@](C)(O)[C@H]3C[C@@H]12 [TETRACYCLINE] | 512 µg/mL (≈ 1150 µM) | 128 µg/mL (≈ 288 µM) | – | – | –
5 | CCC[C@@H]1C[C@@H](C(=O)N[C@@H]([C@H]2O[C@H](SC)[C@H](O)[C@@H](O)[C@H]2O)[C@@H](C)O)N(C)C1 [LINCOMYCIN] | 1020 µg/mL (≈ 2510 µM) | 1020 µg/mL (≈ 2510 µM) | – | – | –
6 | CC1(C)S[C@@H]2[C@H](NC(=O)[C@H](N)c3ccccc3)C(=O)N2[C@H]1C(=O)O [AMPICILLIN] | 853 µg/mL (≈ 2440 µM) | 853 µg/mL (≈ 2440 µM) | – | – | –
7 | C[C@@H](O)[C@H]1C(=O)N2C(C(=O)O)=C(S[C@@H]3CN[C@H](C(=O)N(C)C)C3)[C@H](C)[C@H]12 [MEROPENEM] | 37.3 µg/mL (≈ 97.3 µM) | 16 µg/mL (≈ 41.7 µM) | 21.3 µg/mL (≈ 55.5 µM) | 0.01 µg/mL (≈ 0.0261 µM) | 0.01 µg/mL (≈ 0.0261 µM)
8 | CN[C@H](CC(C)C)C(=O)N[C@H]1C(=O)N[C@@H](CC(N)=O)C(=O)N[C@H]2C(=O)N[C@H]3C(=O)N[C@H](C(=O)N[C@H](C(=O)O)c4cc(O)cc(O)c4-c4cc3ccc4O)[C@H](O)c3ccc(c(Cl)c3)Oc3cc2cc(c3O[C@@H]2O[C@H](CO)[C@@H](O)[C@H](O)[C@H]2O[C@H]2C[C@](C)(N)[C@H](O)[C@H](C)O2)Oc2ccc(cc2Cl)[C@H]1O [VANCOMYCIN] | 683 µg/mL (≈ 471 µM) | 512 µg/mL (≈ 353 µM) | – | – | –
9 | CS(=O)(=O)c1ccc([C@@H](O)[C@@H](CF)NC(=O)C(Cl)Cl)cc1 [FLORFENICOL] | 1020 µg/mL (≈ 2850 µM) | 427 µg/mL (≈ 1190 µM) | – | – | –
10 | CN[C@@H]1[C@H](O)[C@H](NC)[C@H]2O[C@@]3(O)C(=O)C[C@@H](C)O[C@H]3O[C@@H]2[C@H]1O [SPECTINOMYCIN] | 512 µg/mL (≈ 1540 µM) | 853 µg/mL (≈ 2570 µM) | – | – | –
11 | COLISTIN | 1.67 µg/mL | 1.33 µg/mL | – | – | –
12 | C[C@@H](O)[C@H]1C(=O)N2C(C(=O)O)=C(SCCNC=N)C[C@H]12 [IMIPENEM ANHYDROUS] | 26.7 µg/mL (≈ 89.2 µM) | 26.7 µg/mL (≈ 89.2 µM) | – | – | –
13 | CO[C@H]1/C=C/O[C@@]2(C)Oc3c(C)c(O)c4c(O)c(c(/C=N/N5CCN(C)CC5)c(O)c4c3C2=O)NC(=O)/C(C)=C\C=C\[C@H](C)[C@H](O)[C@@H](C)[C@@H](O)[C@@H](C)[C@H](OC(C)=O)[C@@H]1C [RIFAMPIN] | 1020 µg/mL (≈ 1240 µM) | 13.3 µg/mL (≈ 16.2 µM) | – | – | –
14 | NC[C@H]1O[C@H](O[C@H]2[C@H](O)[C@@H](O[C@H]3O[C@H](CO)[C@@H](O)[C@H](N)[C@H]3O)[C@H](N)C[C@@H]2N)[C@H](O)[C@@H](O)[C@@H]1O [KANAMYCIN] | 512 µg/mL (≈ 1060 µM) | 853 µg/mL (≈ 1760 µM) | – | – | –
